{"source": "paper PMC7156724", "about": "“Potent BRD4 inhibitor suppresses cancer cell-macrophage interaction” (Nature Communications, 2020)", "key": {"TAMs": {"system": "TAMs", "assay": "3D Matrigel culture of TAMs, direct treatment", "type": "cell-based, mouse", "description": "CD45^+CD11b^+F4/80^+ TAMs were isolated from peritoneal metastasis of A2780 tumor-bearing mice and cultured in RPMI-1640 supplemented with 10% FBS, 1% penicillin/streptomycin, and 0–50 ng/ml CSF1 (R&D Systems) as indicated according to standard protocols. In the cancer cell-macrophage co-culture experiments, CSF1 was not added. In the transwell (Corning, pore size, 0.4 μm) co-culture experiments, tumor cells were placed into the upper chamber, and TAMs were seeded into the lower chamber.\nSingle clone spheroids were generated by culturing A2780, ES-2, H526 and MDA-MB231 cells for 16 h as a hanging drop over a humidified plate in a CO2 incubator in their corresponding complete media. […] The relative spheroid sizes were measured with ImageJ version 1.52s using the 15 representative spheroids. […]\nwith anti-CD45, CD11b and CD206 followed by FACS analysis. Shown are representative FACS plots (c) and quantification of the percentage of CD11b+CD206+ cells (d). Data are presented as mean ± SEM from 5 different mice. p values were calculated using two-tailed, unpaired t tests. **, p<0.01; ***, p<0.001. […] Quantification of spheroid volumes (f). Data are presented as mean ± SEM from 15 independent experiments. p values were calculated using two-tailed, unpaired t tests. **, p<0.01. […]"}, "A2780 OC cells and TAMs": {"system": "A2780 OC cells and TAMs", "assay": "Orthotopic mouse OC model (intraperitoneal A2780 cells, with or without TAMs): tumor weight, ascitic fluid, IF and FACS", "type": "in vivo", "from_the_text": "Shown are immunofluorescent staining of CD68 (macrophage marker, red) and E-Cadherin (cancer cells, green) (a) and quantification of CD68 positive cells (b) in vehicle, NHWD-870 treated H526 (n = 6) and A2780 (n = 5) tumors from Fig. 3a, b, respectively. Scale bar is 100 μm. […] Shown are representative immunofluorescent staining of Ki67 and CD68 (c) and quantification of percentage of Ki67+ cells in CD68+ cells (d). Scale bar is 30 μm. Data are presented as mean ± SEM of five different tumors. e Schematics of the animal experiments using an orthotopic mouse OC model, established by intraperitoneally injecting human A2780 cells into female recipient nude mice. Mice were then either untreated (Ctrl) or treated with NHWD-870 (PO, QD, 3 mg/kg) for 45 days. Half of the recipient mice received A2780 cells plus TAMs isolated from tumors of OC-bearing donor mice. f, g Tumor weights (f) and ascitic fluid volumes (g) at day 45 for mice in (e). […] Shown are representative immunofluorescent staining of Ki67 and CD68 (h) and quantification of Ki67^+CD68^− (i) or Ki67^+CD68^+ (j), or CD68^+ cells (k). Scale bar is 50 μm. Data are presented as mean ± SEM from five different mice. p values were calculated using two-tailed, unpaired t tests in this figure. *p < 0.05; **p < 0.01; ***p < 0.001. Source data are provided as a Source Data file.\nTo extend our findings, we examined the effects of NHWD-870 in an orthotopic mouse OC model, in which we intraperitoneally injected A2780 OC cells, alone or together with F4/80^+CD11b^+CD206^+ TAMs isolated from the tumor tissues of OC-bearing donor mice 3 days later (Fig. 4e). […] These phenotypes were due to increased proliferation of both tumor cells and macrophages (Ki67^+CD68^− and Ki67^+CD68^+ cells, respectively) (Fig. 4h–i, Ctrl+TAM vs Ctrl). […] The inability to rescue was not due to the limited amount of TAMs (Fig. 4k, CD68^+ cells and Supplementary Fig.11c, d, CD11b^+CD206^+ cells, NHWD-870+TAM vs Ctrl), but likely due to the limited number of proliferating TAMs (Fig. 4j, Ki67^+CD68^+ cells, NHWD-870+TAM vs Ctrl).\n4–6 weeks old female BALB/c nude mice were used for most experiments, with the exception of 6–8 weeks old female C57BL/6 mice were used for B16F10 experiments, and 6–8 weeks old male BALB/c nude mice and SD rats were used for pharmacokinetic experiments. All animals were purchased from Shanghai SIPPR-Bk Lab Animal Co., Ltd. All animals were housed under a regimen of 12 h light/12 h dark cycles and specific pathogen-free conditions. 5×10^6 NCI-H526, ES-2, MDA-MB231, A2780, A375, B16F10, and TMD-8 cells (0.1 ml) were injected subcutaneously into female nude mice. The melanoma patient-derived xenograft model was derived from a human melanoma sample (BRAF, NARS and NF1 wild type, and p53 mutant) removed from a patient in Xiangya Hospital. Surgically removed tumor fragments were implanted subcutaneously into female NSG mice. […] Mouse body weight and tumor sizes were measured every 3 days. […] Ascitic volume and tumor weight were measured by an electronic balance. All the procedures were evaluated and approved by the Institutional Animal Care and Use Committee of Central South University and Yale University. […]\nwith anti-CD45, CD11b and CD206 followed by FACS analysis. Shown are representative FACS plots (c) and quantification of the percentage of CD11b+CD206+ cells (d). Data are presented as mean ± SEM from 5 different mice. p values were calculated using two-tailed, unpaired t tests. **, p<0.01; ***, p<0.001. […]"}, "[1]": {"conditions": "day 45, PO, QD, 3 mg/kg, +TAM, 3 mg/kg"}}, "note": "Where “and” joins values, the source holds several entries; their conditions need not be identical. Equal entries are not always repeated."}
{"smiles": "Cc1nnn(C)c1-c1cnc2c3c4cnn(C)c4ccc3n([C@H](c3ccccc3)C3CCOCC3)c2c1", "note": "[NHWD-870]", "values": [{"measurement": "fold inhibition of colony size of macrophages", "setting": "TAMs", "result": "< 2", "unit": "fold"}, {"measurement": "decrease of the ability of TAMs to form colonies in a 3D culture system", "setting": "TAMs; 100 nM", "result": "< 50", "unit": "%"}, {"measurement": "quantification of CD68+ cells", "setting": "A2780 OC cells and TAMs; [1]", "result": "15 and 17.9 and 19.9 and 12 and 16.7"}, {"measurement": "quantification of Ki67+CD68− cells", "setting": "A2780 OC cells and TAMs; [1]", "result": "10 and 7 and 13 and 9"}, {"measurement": "fold reduction, in vivo effects on TAMs", "setting": "A2780 OC cells and TAMs; in vivo", "result": "~ 16 fold"}, {"measurement": "inhibition of proliferating TAMs", "setting": "A2780 OC cells and TAMs; mouse OC model, Fig. 4j", "result": 94, "unit": "%"}, {"measurement": "proliferating TAMs (Ki67+CD68+ cells), mean", "setting": "A2780 OC cells and TAMs; mouse OC model, Fig. 4j, Ctrl […]", "result": 0.16, "unit": "%"}]}
